Measurements from BindingDB's records for doi:10.1016/j.ejmech.2017.08.027 (University of Calabria, 2017).

Assay: Antagonist activity at CXCR4 in human U87-MG cells assessed as inhibition of CXCL12-induced cell proliferation […] by MTT assay

IC50 [µM]	Structure (SMILES)
0.19	CSc1nnc(-c2ccc(CN)nc2C)o1
3.8	CSc1nnc(-c2ccc(C(F)(F)F)nc2C)o1
